What was measured:
[1] = system: CXCL10; experiment: CXCL10 levels in retina tissue of STZ diabetic rats, topical eye drops; type: in vivo; conditions: eye drops 1-5%, 20 μL three times per day, 30 days, retina homogenate ELISA, vs control eye
Source text: CXCL10 expression is associated with age related and diabetes induced retinopathy. A hallmark of these retinopathies is retinal vascular leakage (i.e. increased retinal vascular permeability) thought to induced by CXCL10. To test the in vivo effect of the compounds on treatment of retinopathies associated with increased CXCL10 levels, diabetes was induced in rats by treatment with Streptozotocin (STZ) according established methods (Akbarzadeh et al, J Clin Biochem. 2007 September; 22(2): 60-64) Testing began once the diabetes had been established in the animals. Compounds were formulated into a topically applied eye drop solution containing 1-5% of compounds 91 and 108 along with ethylene glycol, sodium lauryl sulfate, hyaluronic acid, and sterile water at pH 7.0. […] CXCL10 expression was measured in retina tissue homogenate and retinal vascular permeability was assayed using the measurement of leakage of Evans Blue dye from retinal vessels, a well-established method (Invest Ophthalmol Vis Sci 2001 March; 42: 789-794).

[2] = system: human subjects suffering from dermatitis; experiment: Clinical treatment of dermatitis/eczema with topical cream, Investigator's Global Assessment (IGA); type: in vivo; conditions: 7% topical cream twice per day, 3-4 weeks, vs area treated with cream base alone
Source text: To test the effect of the compounds on treatment of human dermatologic disorders associated with increased CXCL10 production by keratinocytes, Compound 97 and Compound 98 were formulated with stearic acid, lanolin (anhydrous), mineral oil and triethanolamine into a topically applied cream at a concentration of 7%. The compounds in the cream base were applied topically twice per day to human subjects suffering from dermatitis in an area of the skin with active skin lesions for 3-4 weeks. The control was the topical cream base composition without the active compounds. Outcome was measured by an experienced clinical observer as assessed by visible reduction or disappearance of the lesions as assessed in the treated area vs the control area treated only with the cream base alone using Investigator's Global Assessment (IGA) scale.

SMILES | amount of CXCL10 produced by the retina [1] | dermatitis/eczema lesions, Investigator's Global Assessment (IGA) [2]
COc1ccc2[nH]c([S+]([O-])Cc3ncc(C)c(OC)c3C)nc2c1 (stereo not shown) [Compound 91] | significant reduction | –
Cc1c(OCC(F)(F)F)ccnc1C[S+]([O-])c1nc2ccccc2[nH]1 (stereo not shown) [Compound 97] | – | pronounced effect on reducing the dermatitis/eczema
COCCCOc1ccnc(C[S+]([O-])c2nc3ccccc3[nH]2)c1C (stereo not shown) [Compound 98] | – | pronounced effect on reducing the dermatitis/eczema
COc1ccnc(C[S+]([O-])c2nc3cc(OC(F)F)ccc3[nH]2)c1OC (stereo not shown) [Compound 108] | significant reduction | –

— patent US20210338650A1, “CXCL10 Inhibitors” (LAPKO INC, dba AFECTA PHARMACEUTICALS, priority 2020, published 2021)
